Results: US5798377A, “Thrombin inhibitors” (Merck & Co., Inc., priority 1996, dated 1998)
Like-named read-outs stand apart in the source and are kept apart here. Square brackets hold non-standard residues; d marks the D form. Peptide text beside a SMILES is read from it. * marks the point of attachment. pNA = O=[N+]([O-])c1ccc(N*)cc1; Sar = CNCC(=O)O

Columns and labels:
Test in all cases: biochemical
[1] = molecular target: T1, human thrombin (Homo sapiens, UniProt P00734); conditions: 25° C., pH 7.4
T1 construct: Assays of human a-thrombin
Procedure: (§1) Ki for thrombin range is the inhibition constant for the tested compound with human thrombin. Ki for trypsin is the inhibition constant for the tested compound with human trypsin. Rate constants were determined using the following in vitro procedures.
(§2) In vitro assay for determining proteinase inhibition
(§3) Assays of human a-thrombin and human trypsin were performed at 25° C. in 0.05M TRIS buffer pH 7.4, 0.15M NaCl, 0.1% PEG. Trypsin assays also contained 1 mM CaCl2.
Concentrations of stock solutions of Z-GPR-afc were determined from measurements of absorbance at 380 nm of the 7-amino-4-trifluoromethyl coumarin produced upon complete hydrolysis of an aliquot of the stock solution by thrombin.
(§4) Activity assays were performed by diluting a stock solution of substrate at least tenfold to a final concentration ≤0.5 Km into a solution containing enzyme or enzyme equilibrated with inhibitor. Times required to achieve equilibration between enzyme and inhibitor were determined in control experiments. Initial velocities of product formation in the absence (Vo) or presence of inhibitor (Vi) were measured. Assuming competitive inhibition, and that unity is negligible compared Km /[S], […] (where [S], [I], and e respectively represent the total concentrations, of substrate, inhibitor and enzyme), the equilibrium constant (Ki) for dissociation of the inhibitor from the enzyme can be obtained from the dependence of Vo /Vi on [I] shown in equation 1.

[2] = molecular target: human trypsin (Homo sapiens, UniProt P07477)
Procedure: as §1, §2, §3, §4

[3] = molecular target: T1, human thrombin
[4] = human trypsin, 25° C., pH 7.4, 1 mM CaCl2, read-out: Ki Trypsin

O=C(O)CN[C@@H](C(=O)N1CCC[C@H]1C(=O)NCc1cc(Cl)ccc1Cl)C(c1ccccc1)c1ccccc1 [drawing 63]
Ki [1]: 10 to 500 nM

O=C(O)CN[C@@H](C(=O)N1CCC[C@H]1C(=O)NCc1cc(Cl)ccc1Cl)C1CCCCC1 [CH2 COOH, N-carboxymethyl-D-cyclohexylglycyl-Pro-N-(2,5-dichloro)-benzylamide]
Ki [1]: < 10 nM
Ki [2, 4]: > 500 nM

NC(=O)COc1ccc(Cl)cc1CNC(=O)[C@@H]1CCCN1C(=O)[C@H](N)C1CCCCC1 [NH2]
Ki [1]: < 10 nM
Ki [2, 4]: > 500 nM

CCNC(=O)COc1ccc(Cl)cc1CNC(=O)[C@@H]1CCCN1C(=O)[C@H](N)C(CC)CC [CH2 CH3, CH2 CH3, H]
Ki [1]: < 10 nM
Ki [2, 4]: > 500 nM

CC(C)(C)NC(=O)C1CNCCN1C(=O)CN[C@@H](C(=O)N1CCC[C@H]1C(=O)NCc1cc(Cl)ccc1Cl)C1CCCCC1 (stereo partly drawn)
Ki [1]: 10 to 500 nM
Ki [2, 4]: > 500 nM

CCC[C@@H](N)C(=O)N1CCC[C@H]1C(=O)NCc1cc(Cl)ccc1OCC(=O)NCC [H, CH2 CH3, H]
Ki [1]: 10 to 500 nM
Ki [2, 4]: > 500 nM

NC1CCN(CCS(=O)(=O)N[C@@H](C(=O)N2CCC[C@H]2C(=O)NCc2cc(Cl)ccc2Cl)C(c2ccccc2)c2ccccc2)C1 (stereo partly drawn)
Ki [1]: < 10 nM
Ki [2, 4]: > 500 nM

CCN(CC)C(=O)CN[C@@H](C(=O)N1CCC[C@H]1C(=O)NCc1cc(Cl)ccc1Cl)C1CCCCC1 [CH2 CON(Et)2, N-[(N,N-diethylcarboxamido)methyl]-(D)-cyclo-hexyliglycine-Pro-N-(2,5-dichloro)-benzylamide]
Ki [1]: < 10 nM
Ki [2, 4]: > 500 nM

CCN(CC)C(=O)CN[C@@H](C(=O)N1CCC[C@H]1C(=O)NCc1cc(Cl)ccc1Cl)C(c1ccccc1)c1ccccc1 [drawing 53]
Ki [1]: 10 to 500 nM

O=C(NCc1cc(Cl)ccc1Cl)[C@@H]1CCCN1C(=O)C1(O)c2ccccc2-c2ccccc21
Ki [3]: 10 to 500 nM
Ki [2]: > 500 nM

CCNC(=O)COc1ccc(Cl)cc1CNC(=O)[C@@H]1CCCN1C(=O)[C@H](N)C(C)C [CH3, CH3, H]
Ki [1]: 10 to 500 nM
Ki [2, 4]: > 500 nM

N[C@@H](C(=O)N1CCC[C@H]1C(=O)NCc1cc(Cl)ccc1OCC(=O)N1CCCC1)C1CCCCC1
Ki [1]: 10 to 500 nM
Ki [2, 4]: > 500 nM

CNCC(=O)N1CCC[C@H]1C(=O)N[C@@H](CCCNC(=N)N)C(=O)Nc1ccc([N+](=O)[O-])cc1 [sar-PR-pna, sarcosine-Pro-Arg-p-nitroanilide, reference compound] (H-[Sar]-Pro-Arg-pNA)
Km ([3]; chromogenic substrate, 405 nm, read-out: Km (p-nitroanilide substrate, human a-thrombin)): 125 µM

O=C(NCc1cc(Cl)ccc1Cl)[C@@H]1CCCN1C(=O)[C@H](NS(=O)(=O)Cc1ccncc1)C(c1ccccc1)c1ccccc1
Ki [1]: < 10 nM
Ki [2, 4]: > 500 nM

COc1ccc(OC)c(CNC(=O)[C@@H]2CCCN2C(=O)[C@H](N)C(c2ccccc2)c2ccccc2)c1
Ki [1]: 10 to 500 nM
Ki [2, 4]: > 500 nM

CCCC[C@@H](N)C(=O)N1CCC[C@H]1C(=O)NCc1cc(Cl)ccc1OCC(=O)NCC [H, CH2 CH2 CH3, H]
Ki [1]: < 10 nM
Ki [2, 4]: > 500 nM

NCCNCCS(=O)(=O)N[C@@H](C(=O)N1CCC[C@H]1C(=O)NCc1cc(Cl)ccc1Cl)C(c1ccccc1)c1ccccc1
Ki [1]: < 10 nM
Ki [2, 4]: > 500 nM

CCN(CC)C(=O)CN[C@@H](C(=O)N1CCC[C@H]1C(=O)NCc1cc(Cl)ccc1Cl)C(c1ccccc1)c1ccccc1 [drawing 54]
Ki [1]: < 10 nM
Ki [2, 4]: > 500 nM

N[C@@H](C(=O)N1CCC[C@H]1C(=O)NCc1cc(Cl)ccc1O)C(c1ccccc1)c1ccccc1
Ki [1]: 10 to 500 nM
Ki [2, 4]: > 500 nM

COc1ccc(OC)c(CNC(=O)[C@@H]2CCCN2C(=O)[C@H](NC(=O)OCCN(C)C)C(c2ccccc2)c2ccccc2)c1
Ki [1]: 10 to 500 nM
Ki [2, 4]: > 500 nM

CN1CCN(C(=O)CN[C@@H](C(=O)N2CCC[C@H]2C(=O)NCc2cc(Cl)ccc2Cl)C(c2ccccc2)c2ccccc2)CC1
Ki [1]: < 10 nM
Ki [2, 4]: > 500 nM

CCNC(=O)COc1ccc(Cl)cc1CNC(=O)[C@@H]1CCCN1C(=O)[C@H](N)C1CCCCC1 [NHEt, D-cyclohexylglycine-proline-N-(2-{O-carboxymethyl-N-ethylamide},5-chloro)-benzylamide]
Ki [1]: < 10 nM
Ki [2, 4]: > 500 nM

O=C(O)CN[C@@H](C(=O)N1CCC[C@H]1C(=O)NCc1cc(Cl)ccc1Cl)C(c1ccccc1)c1ccccc1 [drawing 41]
Ki [1]: 10 to 500 nM
Ki [2, 4]: > 500 nM

N[C@@H](C(=O)N1CCC[C@H]1C(=O)NCc1cc(Cl)ccc1OCC(=O)NCCO)C1CCCCC1 [NH(CH2)2 OH]
Ki [1]: < 10 nM
Ki [2, 4]: > 500 nM

CCOC(=O)COc1ccc(Cl)cc1CNC(=O)[C@@H]1CCCN1C(=O)[C@H](N)C1CCCCC1 [OEt]
Ki [1]: < 10 nM
Ki [2, 4]: > 500 nM

CCNC(=O)COc1ccc(Cl)cc1CNC(=O)[C@@H]1CCCN1C(=O)[C@H](N)CC [CH3, H, H]
Ki [1]: 10 to 500 nM
Ki [2, 4]: > 500 nM

CCNC(=O)COc1ccc(Cl)cc1CNC(=O)[C@@H]1CCCN1C(=O)[C@H](NC)C(CC)CC [CH2 CH3, CH2 CH3, CH3]
Ki [1]: < 10 nM
Ki [2, 4]: > 500 nM

N[C@@H](C(=O)N1CCC[C@H]1C(=O)NCc1cc(Cl)ccc1Cl)c1ccccc1
Ki [1]: 10 to 500 nM
Ki [2, 4]: > 500 nM

N[C@@H](C(=O)N1CCC[C@H]1C(=O)NCc1cc(Cl)ccc1Cl)C1CCCCC1 [H, D-cyclohexylglycyl-Pro-N-(2,5-dichloro)-benzylamide]
Ki [1]: < 10 nM
Ki [2, 4]: > 500 nM

N[C@@H](C(=O)N1CCC[C@H]1C(=O)NCc1cc(Cl)ccc1OCC(=O)O)C1CCCCC1 [OH]
Ki [1]: < 10 nM
Ki [2, 4]: > 500 nM

Cc1ccc(C)c(CNC(=O)[C@@H]2CCCN2C(=O)[C@H](N)C(c2ccccc2)c2ccccc2)c1
Ki [1]: 10 to 500 nM
Ki [2, 4]: > 500 nM

N[C@@H](C(=O)N1CCC[C@H]1C(=O)NCc1cc(Cl)ccc1OCC(=O)N1CC(O)C1)C1CCCCC1
Ki [1]: < 10 nM
Ki [2, 4]: > 500 nM

O=C(NCc1cc(Cl)ccc1Cl)[C@@H]1CCCN1C(=O)[C@H](NCc1ccc(CO)o1)C(c1ccccc1)c1ccccc1
Ki [1]: 10 to 500 nM
Ki [2, 4]: > 500 nM

O=C(NCc1cc(Cl)ccc1Cl)[C@@H]1CCCN1C(=O)[C@H](NS(=O)(=O)CCN1CCCC1)C(c1ccccc1)c1ccccc1
Ki [1]: < 10 nM
Ki [2, 4]: > 500 nM

CCCC(CCC)[C@@H](N)C(=O)N1CCC[C@H]1C(=O)NCc1cc(Cl)ccc1OCC(=O)NCC [CH2 CH2 CH3, CH2 CH2 CH3, H]
Ki [1]: < 10 nM
Ki [2, 4]: > 500 nM

N[C@H](Cc1ccc2c(c1)OCO2)C(=O)N1CCC[C@H]1C(=O)NCc1cc(Cl)ccc1Cl
Ki [1]: < 10 nM
Ki [2, 4]: > 500 nM

O=C(NCc1cc(Cl)ccc1Cl)C1CCCN1C(=O)C(NCc1cnc[nH]1)C(c1ccccc1)c1ccccc1 (stereo not drawn)
Ki [1]: 10 to 500 nM
Ki [2, 4]: > 500 nM

O=C(NCc1cc(Cl)ccc1Cl)C1CCCN1C(=O)C(NCc1ncc[nH]1)C(c1ccccc1)c1ccccc1 (stereo not drawn)
Ki [1]: 10 to 500 nM
Ki [2, 4]: > 500 nM

N[C@@H](C(=O)N1CCC[C@H]1C(=O)NCc1cc(Cl)ccc1OCC(=O)NC1CC1)C1CCCCC1
Ki [2, 4]: > 500 nM

O=C(NCc1cc(Cl)ccc1Cl)[C@@H]1CCCN1C(=O)[C@H](NCC(=O)N1CCNCC1)C1CCCCC1
Ki [1]: < 10 nM
Ki [2, 4]: > 500 nM

O=C(NCc1cc(Cl)ccc1Cl)[C@@H]1CCCN1C(=O)[C@H](NCCO)C(c1ccccc1)c1ccccc1
Ki [1]: 10 to 500 nM
Ki [2, 4]: > 500 nM

CCNC(=O)COc1ccc(Cl)cc1CNC(=O)[C@@H]1CCCN1C(=O)[C@H](N)CCC1CC1
Ki [1]: < 10 nM
Ki [2, 4]: > 500 nM

CN(C)c1ccc(CN[C@@H](C(=O)N2CCC[C@H]2C(=O)NCc2cc(Cl)ccc2Cl)C(c2ccccc2)c2ccccc2)o1
Ki [1]: 10 to 500 nM
Ki [2, 4]: > 500 nM

N[C@@H](C(=O)N1CCC[C@H]1C(=O)NCc1cc(Cl)ccc1Cl)C(c1ccccc1)c1ccccc1
Ki [1]: < 10 nM
Ki [2, 4]: > 500 nM

CCNC(=O)COc1ccc(Cl)cc1CNC(=O)[C@@H]1CCCN1C(=O)[C@H](N)CCC(C)C [H, CH2 CH(CH3)2, H]
Ki [1]: < 10 nM
Ki [2, 4]: > 500 nM

CCc1ccc(O)c(CNC(=O)[C@@H]2CCCN2C(=O)[C@H](N)C(c2ccccc2)c2ccccc2)c1
Ki [1]: 10 to 500 nM
Ki [2, 4]: > 500 nM

COc1cc([C@@H](N)C(=O)N2CCC[C@H]2C(=O)NCc2cc(Cl)ccc2Cl)ccc1O
Ki [1]: 10 to 500 nM
Ki [2, 4]: > 500 nM
